Data from ChEMBL document CHEMBL1201862, “PubChem BioAssay data set” (2004).
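The compound was tested at five concentrations on cells cultured in 96-well plates, with a 48-hour exposure period. At the GI50, growth is halved.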 Activity calls are given as the source filed them. Rule as the data show it: active = GI50 up to about 1.1 µM and inactive = higher.

How the values were obtained:
Test in all cases: growth of human tumour cells (NCI), 48 h
[1] = system: A498
[2] = system: A549
[3] = system: COLO 205
[4] = system: HCT-116
[5] = system: HT-29
[6] = system: IGROV-1
[7] = system: M14
[8] = system: MDA-MB-231
[9] = system: MDA-N
[10] = system: NCI-H23
[11] = system: OVCAR-8
[12] = system: SN12C
[13] = system: SNB-19
[14] = system: T47D
[15] = system: U-251
[16] = system: UACC-257
[17] = system: SF-539
[18] = system: SK-MEL-2
[19] = system: SR

SMILES | GI50 [1] | GI50 [2] | GI50 [3] | GI50 [4] | GI50 [5] | GI50 [6] | GI50 [7] | GI50 [8] | GI50 [9] | GI50 [10] | GI50 [11] | GI50 [12] | GI50 [13] | GI50 [14] | GI50 [15] | GI50 [16] | GI50 [17] | GI50 [18] | GI50 [19]
CC(C)CN(CC#N)CC(C)C | > 100 µM (inactive) | > 100 µM (inactive) | > 100 µM (inactive) | > 100 µM (inactive) | > 100 µM (inactive) | > 100 µM (inactive) | > 100 µM (inactive) | > 100 µM (inactive) | > 100 µM (inactive) | > 100 µM (inactive) | > 100 µM (inactive) | > 100 µM (inactive) | > 100 µM (inactive) | > 100 µM (inactive) | > 100 µM (inactive) | > 100 µM (inactive) |  |  | 
Cc1cc2c(cc1Cl)SC(NNc1ccc([N+](=O)[O-])cc1)=NS2(=O)=O | > 10 µM (inactive) | > 10 µM (inactive) | > 10 µM (inactive) | > 10 µM (inactive) | > 10 µM (inactive) | > 10 µM (inactive) | > 10 µM (inactive) | > 10 µM (inactive) | > 10 µM (inactive) | > 10 µM (inactive) | > 10 µM (inactive) | > 10 µM (inactive) | > 10 µM (inactive) | > 10 µM (inactive) | > 10 µM (inactive) | > 10 µM (inactive) | > 10 µM (inactive) | > 10 µM (inactive) | 
Cc1ccc(/C=N/Nc2cc(C)c3cccc(C)c3n2)s1 |  | 6.31 µM (inactive) | 6.98 µM (inactive) | 2.82 µM (inactive) | 2.86 µM (inactive) | 2.61 µM (inactive) | 4.33 µM (inactive) | > 10 µM (inactive) | 8.89 µM (inactive) | 12.2 µM (inactive) | 10.4 µM (inactive) | 9.08 µM (inactive) | 26.5 µM (inactive) | 4.15 µM (inactive) | 10.6 µM (inactive) | 18.7 µM (inactive) | 13.9 µM (inactive) | 16 µM (inactive) | 2.71 µM (inactive)
Nc1ncnc2c1ccn2CC#CCO | > 100 µM (inactive) | > 100 µM (inactive) | > 100 µM (inactive) | > 100 µM (inactive) | > 100 µM (inactive) | > 100 µM (inactive) | > 100 µM (inactive) | > 100 µM (inactive) | > 100 µM (inactive) | > 100 µM (inactive) | > 100 µM (inactive) | > 100 µM (inactive) | > 100 µM (inactive) | > 100 µM (inactive) | > 100 µM (inactive) | > 100 µM (inactive) | > 100 µM (inactive) | > 100 µM (inactive) | 
O=C(N/N=C1\CCc2ccccc2C1)N/N=C1\CCc2ccccc2C1 |  | > 10 µM (inactive) | > 10 µM (inactive) | > 10 µM (inactive) | > 10 µM (inactive) |  | > 10 µM (inactive) | > 10 µM (inactive) | > 10 µM (inactive) | > 10 µM (inactive) | > 10 µM (inactive) | > 10 µM (inactive) | > 10 µM (inactive) | > 10 µM (inactive) | > 10 µM (inactive) | > 10 µM (inactive) |  | > 10 µM (inactive) | > 10 µM (inactive)
Cc1ccc(NC(=O)c2cc(S(=O)(=O)Nc3n[nH]c(=O)[nH]3)c(SSc3cc(Cl)c(C(=O)Nc4ccc(C)cc4)cc3S(=O)(=O)Nc3n[nH]c(=O)[nH]3)cc2Cl)cc1 | > 100 µM (inactive) | > 100 µM (inactive) | > 100 µM (inactive) | > 100 µM (inactive) | > 100 µM (inactive) | > 100 µM (inactive) | > 100 µM (inactive) | > 100 µM (inactive) | > 100 µM (inactive) | > 100 µM (inactive) | > 100 µM (inactive) | > 100 µM (inactive) | > 100 µM (inactive) |  | > 100 µM (inactive) | > 100 µM (inactive) |  | > 100 µM (inactive) | > 100 µM (inactive)
C/C(=N\c1ccc(Cl)cc1)c1ccncc1 | 3.96 µM (inactive) | 4.73 µM (inactive) | 5.64 µM (inactive) | > 100 µM (inactive) | > 100 µM (inactive) |  | > 100 µM (inactive) | > 100 µM (inactive) | > 100 µM (inactive) | 67.8 µM (inactive) | > 100 µM (inactive) | > 100 µM (inactive) | > 100 µM (inactive) | 0.809 µM (active) | > 100 µM (inactive) | 22.6 µM (inactive) | 4.31 µM (inactive) | > 100 µM (inactive) | 
CC1=C(C)C1[N+](=O)[O-] | 97.7 µM (inactive) | > 100 µM (inactive) | > 100 µM (inactive) | > 100 µM (inactive) | > 100 µM (inactive) | > 100 µM (inactive) | > 100 µM (inactive) | > 100 µM (inactive) | > 100 µM (inactive) | > 100 µM (inactive) | > 100 µM (inactive) | > 100 µM (inactive) | > 100 µM (inactive) | > 100 µM (inactive) | > 100 µM (inactive) | > 100 µM (inactive) | > 100 µM (inactive) |  | 
CN(C(=S)Cc1ccc(Cl)c(Cl)c1)C1CCCC[C@@H]1N1CCCC1 (stereo partly specified) | 13 µM (inactive) | 63.4 µM (inactive) |  | 48.1 µM (inactive) | 16.7 µM (inactive) | < 0.01 µM (active) | 18.2 µM (inactive) | 34.4 µM (inactive) | 17.8 µM (inactive) | 44.2 µM (inactive) |  | 63.7 µM (inactive) | > 100 µM (inactive) | 38 µM (inactive) | 29.9 µM (inactive) |  | 55.7 µM (inactive) | 31.6 µM (inactive) | 
CC1C/C(=N\N(C)C)C(C#N)(C#N)C1(C#N)C#N (stereo unspecified) |  | 24.8 µM (inactive) | 1.82 µM (inactive) | 9.48 µM (inactive) | 6.53 µM (inactive) | 20.6 µM (inactive) | 12.2 µM (inactive) | 0.583 µM (active) | 17.8 µM (inactive) | 20.5 µM (inactive) | 19.2 µM (inactive) | 19 µM (inactive) | 31.7 µM (inactive) | 10.8 µM (inactive) | 18.7 µM (inactive) | 13.2 µM (inactive) | 18.1 µM (inactive) | 22.2 µM (inactive) | 2.82 µM (inactive)
O=C1N[C@H](C(=O)O)[C@@H](c2ccc(OCc3ccccc3)cc2)O1 |  | 81.5 µM (inactive) | > 100 µM (inactive) | 31.7 µM (inactive) | > 100 µM (inactive) | 20.9 µM (inactive) | > 100 µM (inactive) | 23.2 µM (inactive) | > 100 µM (inactive) | 40.4 µM (inactive) | 20.7 µM (inactive) | 45.1 µM (inactive) | 17.7 µM (inactive) | 26.3 µM (inactive) | 27.9 µM (inactive) | > 100 µM (inactive) |  | 26.2 µM (inactive) | 
Cc1c(NC(=O)CCCl)c(=O)oc2c(C)c3occc(=O)c3cc12 | 19.7 µM (inactive) | > 100 µM (inactive) | > 100 µM (inactive) | 92.7 µM (inactive) | > 100 µM (inactive) | 97.5 µM (inactive) | 50.8 µM (inactive) |  | 47.9 µM (inactive) | 94.4 µM (inactive) | > 100 µM (inactive) |  | 75.5 µM (inactive) | 77.4 µM (inactive) | 67.6 µM (inactive) | 60.1 µM (inactive) |  |  | 80.4 µM (inactive)
CC1(CCCO)CCCCCCCCCC(C)(CCCO)C1=O (stereo unspecified) | > 100 µM (inactive) | 87.3 µM (inactive) | > 100 µM (inactive) | 94 µM (inactive) | > 100 µM (inactive) | > 100 µM (inactive) | > 100 µM (inactive) | > 100 µM (inactive) | > 100 µM (inactive) | > 100 µM (inactive) | > 100 µM (inactive) | > 100 µM (inactive) | > 100 µM (inactive) | > 100 µM (inactive) | > 100 µM (inactive) | > 100 µM (inactive) |  | 97.5 µM (inactive) | 
O=c1oc2ccc(Cl)cc2cc1-c1cn2ccccc2n1 |  | 14.7 µM (inactive) | > 100 µM (inactive) | 6.64 µM (inactive) | 17.7 µM (inactive) | 29.2 µM (inactive) | > 66.7 µM (inactive) | 8.97 µM (inactive) | > 100 µM (inactive) | 15.7 µM (inactive) | 9.62 µM (inactive) | 7.76 µM (inactive) |  | > 61.2 µM (inactive) | 3.93 µM (inactive) | > 94.4 µM (inactive) | 8.09 µM (inactive) | > 96.6 µM (inactive) | 32.9 µM (inactive)
CCOC(=O)c1cn2c(ccc3sc4ccccc4c(=O)c32)n1 | > 100 µM (inactive) | > 100 µM (inactive) | > 100 µM (inactive) | > 100 µM (inactive) | > 100 µM (inactive) | > 100 µM (inactive) |  | > 100 µM (inactive) | > 100 µM (inactive) | > 100 µM (inactive) | > 100 µM (inactive) | > 100 µM (inactive) | > 100 µM (inactive) |  | > 100 µM (inactive) | > 100 µM (inactive) | > 100 µM (inactive) |  | > 100 µM (inactive)
O=c1c(C(c2ccc(-c3ccccc3)cc2)c2c(O)oc3ccccc3c2=O)c(O)oc2ccccc12 | 31 µM (inactive) |  | 34.6 µM (inactive) | 23.2 µM (inactive) | 20.3 µM (inactive) | 34.8 µM (inactive) |  | 23.3 µM (inactive) | 19.4 µM (inactive) | 24.8 µM (inactive) | 17.2 µM (inactive) | 16.7 µM (inactive) | 30.5 µM (inactive) | 40 µM (inactive) | 44.8 µM (inactive) | 34.4 µM (inactive) |  | 22.5 µM (inactive) | 
